According to PubChem BioAssay (NCI):
Where “and” joins values, the source holds several entries; their conditions need not be identical. Equal values may be shown once.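 All cell lines were grown in 96-well plates and treated with compound for 48 hours. At the GI50, growth is halved. TGI is the concentration that stops growth completely.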

Experiments:
Test in all cases: NCI-60 cell line screen, 48 h
[1] = system: BT-549 breast
[2] = system: DU-145 prostate
[3] = system: NCI-H23 lung
[4] = system: UACC-62 melanoma
[5] = system: MDA-MB-231 breast
[6] = system: HCT-116 colon
[7] = system: SK-MEL-28 melanoma
[8] = system: SK-OV-3 ovarian

Structure (SMILES)	TGI [1] [µM]	TGI [2] [µM]	TGI [3] [µM]	TGI [4]	TGI [5]	TGI [6] [µM]	TGI [7] [µM]	TGI [8] [µM]	GI50 [1] [µM]	GI50 [2]	GI50 [3]	GI50 [4]	GI50 [5]	GI50 [6]	GI50 [7]	GI50 [8]
O=[N+]([O-])c1ccc(NN=C2c3ccccc3Cc3ccccc32)c([N+](=O)[O-])c1	> 100	> 100	> 100	> 100 µM	> 100 µM	> 100	> 100	> 100								
O=C1CCCC(=O)C1C(=O)c1ccc(C(F)(F)F)cc1[N+](=O)[O-]	> 100	> 100	> 100	> 100 µM	> 100 µM	> 100	> 100	> 100	> 100	> 100 µM	> 100 µM	> 100 µM	> 100 µM	> 100000 nM	> 100000 nM	> 100 µM
COc1cc(C2C(C(=O)OCc3ccccc3)=C(C)NC(C)=C2C(=O)OCc2ccccc2)cc(OC)c1OC	> 100			> 100 µM	> 100 µM	> 100		> 100	3.3			3.62 µM	2.16 µM	2540 nM		4.78 µM
COc1cc(/C=N/Nc2ncnc3c2cnn3Cc2ccccc2)ccc1O	> 25	> 25	> 25	> 25 µM	> 25 µM	> 25	> 25	16.8	12.2	12.2 µM	11.9 µM	10.4 µM	3.43 µM	14000 nM	> 19600 nM	5.99 µM
CC(=O)Nc1ccc(S(=O)(=O)c2ccc(NC(C)=O)cc2)cc1	> 100	> 100	> 100	> 100 µM	> 100 µM	> 100	> 100	> 100	> 100	> 100 µM	> 100 µM	> 100 µM	> 100 µM	> 100000 nM	> 100000 nM	> 100 µM
COc1cc(C(=O)Nc2cc(O)c(C/C=C(\C)CCC=C(C)C)c(O)c2)cc2c1O[C@]1(C)CC[C@@H](O)C(C)(C)[C@H]1C2	5.23	13.1	19.7	0.803 µM and 1.79 µM	5.53 µM and 5.34 µM	7.11	13.8	22.7		1.88 µM and 0.331 µM	1.61 µM and 2.09 µM	0.0488 µM and 0.0463 µM	1.01 µM and 0.461 µM	143 nM and 185 nM	178 nM and 629 nM	0.0926 µM and 0.114 µM
O=C1C(Cl)=C(Nc2ccccn2)C(=O)c2ccccc21	4.58	3.39	7.4	3.95 µM	16.6 µM	4.1	3.92	26.9	2.09	1.94 µM	2.18 µM	2.1 µM	3.23 µM	1950 nM	2090 nM	13.9 µM
Cc1nn(-c2ccccc2)c(C)c1/C=N/N1CCN(Cc2ccccc2)CC1	> 100	> 100	> 100	> 100 µM	95.2 µM	> 100	> 100		48.2	96.4 µM	41.7 µM	33.8 µM	22.6 µM	28000 nM	80500 nM	
